# In patent US7601721B2, “Substituted heterocyclic compounds” (Gilead Palo Alto, Inc., priority 2004, dated 2009):
# System: Palmitoyl CoA oxidation in rat heart mitochondria
# Assay: Palmitoyl CoA oxidation in isolated rat heart mitochondria (Mitochondrial Assays)
# Format: biochemical
# Conditions: 1-C14 palmitoyl CoA, 15 min at 30° C., read-out: Palm CoA inhibition IC50
# Experimental: Rat heart mitochondria are isolated by the method of Nedergard and Cannon (Methods in Enzymol. 55, 3, 1979).
# Palmitoyl CoA oxidation—The Palmityl CoA oxidation is carried out in a total volume of 100 micro liters containing the following agents: 110 mM KCl, 33 mM Tris buffer at pH 8, 2 mM KPi, 2 mM MgCl2, 0.1 mM EDTA, 14.7 microM defatted BSA, 0.5 mM malic acid, 13 mM carnitine, 1 mM ADP, 52 micrograms of mitochondrial protein, and 16 microM 1-C14 palmitoyl CoA (Sp. Activity 60 mCi/mmole; 20 microCi/ml, using 5 microliters per assay). The compounds of this invention are added in a DMSO solution at the following concentrations: 100 micro molar, 30 micro molar, and 3 micro molar. In each assay, a DMSO control is used. After 15 min at 30° C., the enzymatic reaction is centrifuged (20,000 g for 1 min), and 70 microliters of the supernatant is added to an activated reverse phase silicic acid column (approximately 0.5 ml of silicic acid). The column is eluted with 2 ml of water, and 0.5 ml of the eluent is used for scintillation counting to determine the amount of C^14 trapped as C^14 bicarbonate ion.
row,IC50,Compound
1,2.9 µM,Cc1nc2cc(OCC(CN3CCN(CC(=O)Nc4cccc(-c5ccccc5)c4)CC3)NS(C)(=O)=O)ccc2s1 (stereo not shown) [2-(4-{3-(2-methylbenzothiazol-5-yloxy)-2-[(methylsulfonyl)amino]propyl}piperazinyl)-N-(3-phenylphenyl)acetamide]
2,12.7 µM,CC(=O)NC(COc1ccc2sc(C)nc2c1)CN1CCN(CC(=O)Nc2cccc(-c3ccccc3)c2)CC1 (stereo not shown) [2-{4-[2-(acetylamino)-3-(2-methylbenzothiazol-5-yloxy)propyl]piperazinyl}-N-(3-phenylphenyl)acetamide]
3,8.2 µM,CC(=O)NC(COc1ccc2sc(C)nc2c1)CN1CCN(C(=O)Nc2ccc3c(c2)Cc2ccccc2-3)CC1 (stereo not shown) [N-{2-[4-(N-fluoren-2-ylcarbamoyl)piperazinyl]-1-[(2-methylbenzothiazol-5-yloxy)methyl]ethyl}acetamide]
4,3 µM,N-fluoren-2-yl(4-{3-(2-methylbenzothiazol-5-yloxy)-2-[(methylsulfonyl)amino]propyl}-piperazinyl)carboxamide
